Data reported in the CheMixHub viscosity set.
Values joined by “and” are separate entries in the source; they are usually repeats but may differ in a detail not shown here. Equal entries are not always repeated. ± gives the uncertainty stated by the source.

Assays:
[1] = xn = mol fraction of the nth substance listed

CCCCCCCC[P+](CC)(CC)CC.N#Cc1ccc[n-]1
100 kPa
Conditions	viscosity [mPa·s]
293.15 K	272 ± 39
298.15 K	189 ± 27
303.15 K	140 ± 20
313.15 K	82 ± 12

C1COCCN1
101 kPa
Conditions	viscosity
293.15 K	2.12 ± 0.02 mPa·s and 2.282 ± 0.03 mPa·s
303.15 K	1.74 ± 0.02 mPa·s
313.15 K	1.45 ± 0.02 mPa·s
323.15 K	1.21 ± 0.01 mPa·s

CC(=O)[O-].C[NH+]1CCCC1
Conditions	viscosity [mPa·s]
298.15 K, 100 kPa	3.78 ± 0.08

CCCCn1cc[n+](C)c1.COP(=O)([O-])OC
101 kPa
Conditions	viscosity [mPa·s]
293.15 K	895.4 ± 36
298.15 K	608.9 ± 21
303.15 K	426 ± 13
308.15 K	305.8 ± 8.1
313.15 K	224.9 ± 5.1
318.15 K	168.9 ± 3.3
323.15 K	129.4 ± 2.2

CC(C)Br
101 kPa
Conditions	viscosity [mPa·s]
298.15 K	0.4981 ± 0.028
303.15 K	0.4835 ± 0.028
308.15 K	0.4708 ± 0.027
313.15 K	0.4389 ± 0.026
318.15 K	0.4194 ± 0.025

CCC[N+]1(C)CCCC1.N#C[N-]C#N
Conditions	viscosity [mPa·s]
313.15 K, 101 kPa	18.6 ± 1.9

CC(O)CO (stereo not drawn)
viscosity
Conditions	293.15 K	298.15 K	303.15 K	308.15 K	313 K	313.15 K	318.15 K	323.15 K
100 kPa	54.6 ± 11 mPa·s and 58.75 ± 5.9 mPa·s and 59.2 ± 0.7 mPa·s	–	33.06 ± 0.69 mPa·s	25.31 ± 0.53 mPa·s and 24.9 ± 0.3 mPa·s	–	19.65 ± 2 mPa·s and 19.3 ± 0.2 mPa·s	–	12.53 ± 0.26 mPa·s and 12.54 ± 1.3 mPa·s and 12.51 ± 0.28 mPa·s
101 kPa	–	–	34.28 ± 0.094 mPa·s and 33.1 ± 0.7 mPa·s	–	20.2 ± 0.6 mPa·s	20.43 ± 0.055 mPa·s and 19.65 ± 0.09 mPa·s and 21.46 ± 0.12 mPa·s	–	12.2 ± 0.73 mPa·s
101.3 kPa	57.2 ± 0.2 mPa·s	43.5 ± 0.5 mPa·s and 43.6 ± 0.2 mPa·s	32.73 ± 0.42 mPa·s	25.1 ± 0.3 mPa·s and 24.8 ± 0.1 mPa·s	–	19.47 ± 0.23 mPa·s and 19.47 ± 0.14 mPa·s	15.36 ± 0.17 mPa·s and 15.2 ± 0.1 mPa·s and 15.36 ± 0.11 mPa·s	12.34 ± 0.14 mPa·s

CCCCC(=O)[O-].CC[NH+](CC)CCO
101 kPa
Conditions	viscosity [mPa·s]
293.15 K	62.45 ± 1.1
298.15 K	47.75 ± 0.81
303.15 K	37.12 ± 0.63
308.15 K	29.31 ± 0.5
313.15 K	23.48 ± 0.4
318.15 K	19.07 ± 0.32
323.15 K	15.68 ± 0.27

ClC=C(Cl)Cl
Conditions	viscosity
293.15 K, 101 kPa	0.568 ± 0.011 mPa·s
293.15 K, 101.33 kPa	0.572 ± 0.011 mPa·s
298 K, 101 kPa	0.69 ± 0.02 mPa·s
298.15 K, 101 kPa	0.531 ± 0.005 mPa·s
298.15 K, 101.33 kPa	0.529 ± 0.006 mPa·s and 0.618 ± 0.008 mPa·s
303 K, 101 kPa	0.66 ± 0.01 mPa·s
303.15 K, 101 kPa	0.52 ± 0.011 mPa·s and 0.523 ± 0.0045 mPa·s
303.15 K, 101.3 kPa	0.509 ± 0.009 mPa·s and 0.515 ± 0.008 mPa·s
303.15 K, 101.32 kPa	0.523 ± 0.0072 mPa·s
303.15 K, 101.33 kPa	0.523 ± 0.004 mPa·s and 0.515 ± 0.015 mPa·s and 0.532 ± 0.01 mPa·s
308 K, 101 kPa	0.63 ± 0.01 mPa·s
308.15 K, 101 kPa	0.489 ± 0.005 mPa·s
308.15 K, 101.33 kPa	0.588 ± 0.008 mPa·s
313 K, 101 kPa	0.6 ± 0.01 mPa·s
313.15 K, 101 kPa	0.482 ± 0.01 mPa·s and 0.531 ± 0.0071 mPa·s
313.15 K, 101.33 kPa	0.486 ± 0.014 mPa·s and 0.473 ± 0.0092 mPa·s
318.15 K, 101 kPa	0.45 ± 0.005 mPa·s
318.15 K, 101.33 kPa	0.557 ± 0.007 mPa·s
323.15 K, 101 kPa	0.445 ± 0.009 mPa·s and 0.472 ± 0.0063 mPa·s

O=C[O-].OCC[NH2+]CCO
100 kPa
Conditions	viscosity [mPa·s]
293.15 K	470.9 ± 96
303.15 K	242 ± 49
313.15 K	135 ± 27
323.15 K	82.25 ± 17

O=C1CCCC1
viscosity
Conditions	298.15 K	303.15 K	308.15 K	313.15 K	318.15 K
100 kPa	–	0.985 ± 0.1 mPa·s	0.931 ± 0.1 mPa·s	0.863 ± 0.1 mPa·s	0.811 ± 0.1 mPa·s
101 kPa	1.084 ± 0.014 mPa·s and 1.125 ± 0.0079 mPa·s	–	0.923 ± 0.012 mPa·s and 0.931 ± 0.046 mPa·s and 0.928 ± 0.035 mPa·s	0.861 ± 0.012 mPa·s and 0.861 ± 0.011 mPa·s and 0.863 ± 0.044 mPa·s	0.811 ± 0.041 mPa·s
101.3 kPa	1.074 ± 0.027 mPa·s	–	–	–	–
101.33 kPa	–	0.992 ± 0.027 mPa·s	–	–	–

CC(CCO)CC(C)(C)C (stereo not drawn)
101.33 kPa
Conditions	viscosity [mPa·s]
298.15 K	10.97 ± 0.4
303.15 K	10.44 ± 0.39
308.15 K	9.608 ± 0.36

NC1CCCCC1
101 kPa
Conditions	viscosity
298.15 K	1.753 ± 0.013 mPa·s (2×) and 1.773 ± 0.021 mPa·s and 1.753 ± 0.012 mPa·s
303.15 K	1.656 ± 0.014 mPa·s and 1.648 ± 0.019 mPa·s
308.15 K	1.325 ± 0.14 mPa·s and 1.325 ± 0.017 mPa·s

Cc1ccccn1
viscosity
Conditions	293.15 K	298.15 K	298.18 K	303.15 K	303.21 K	308.23 K	313.15 K	313.29 K	318.33 K	323.15 K
101 kPa	0.808 ± 0.014 mPa·s	0.792 ± 0.013 mPa·s	0.751 ± 0.012 mPa·s	–	0.704 ± 0.011 mPa·s	0.663 ± 0.01 mPa·s	0.628 ± 0.011 mPa·s	0.623 ± 0.01 mPa·s	0.588 ± 0.009 mPa·s	–
101.3 kPa	–	–	–	0.7406 ± 0.017 mPa·s	–	–	0.6537 ± 0.015 mPa·s and 0.6534 ± 0.015 mPa·s	–	–	0.5843 ± 0.014 mPa·s

Cc1ccccn1 + CCC(C)=O
viscosity [mPa·s], [1], 101.3 kPa
Conditions	x1 = 0.1	x1 = 0.2	x1 = 0.3	x1 = 0.4	x1 = 0.5	x1 = 0.6	x1 = 0.7	x1 = 0.7999	x1 = 0.9
303.15 K	0.4017 ± 0.0086	0.4296 ± 0.0092	0.4565 ± 0.0099	0.4877 ± 0.011	0.5193 ± 0.011	0.5612 ± 0.013	0.5978 ± 0.013	0.6425 ± 0.015	0.6942 ± 0.016
313.15 K	0.3667 ± 0.0079	0.3917 ± 0.0084	0.416 ± 0.009	0.4445 ± 0.0097	0.4702 ± 0.01	0.5038 ± 0.011	0.5356 ± 0.012	0.5718 ± 0.013	0.6118 ± 0.014
323.15 K	0.3457 ± 0.0074	0.3572 ± 0.0077	0.3813 ± 0.0083	0.4009 ± 0.0088	0.4264 ± 0.0094	0.4523 ± 0.01	0.4827 ± 0.011	0.5104 ± 0.012	0.5528 ± 0.013

CCCCC(=O)[O-].CC[NH+](CC)CCO + CCCCn1cc[n+](C)c1.COP(=O)([O-])OC
Conditions	viscosity [mPa·s]
[1], 298.15 K, 101 kPa, x1 = 0.1018	415.5 ± 13
